The record followed here is ChEMBL document CHEMBL1126927.

In this assay the target is Estrogen receptor (Ovis aries) (UniProt P49885+Q9TU15).

Description: Association constant for estrogen receptor

`[N-]=[N+]=Nc1c(F)c(F)c(C(=O)c2c(-c3ccc(O)cc3)sc3cc(O)ccc23)c(F)c1F` showed a K ass of 1.7e+08. Regarding `[N-]=[N+]=Nc1ccc(C(=O)c2c(-c3ccc(O)cc3)sc3cc(O)ccc23)cc1`, the K ass came out at 1e+09. Molecule `O=C(c1ccc(OCCN2CCCC2)cc1)c1c(-c2ccc(O)cc2)sc2cc(O)ccc12` gave a K ass of 1.3e+09.
